Experimental data from patent US20250387481A1, “PRE-TREATED T CELLS FOR USE AS A MEDICAMENT” (STICHTING HET NEDERLANDS KANKER INSTITUUT-ANTONI VAN …, priority 2022, published 2025).

Columns and labels:
[1] = test system: KB1P organoids; assay: MTT measurement of KB1P organoid survival upon increasing doses of docetaxel; assay type: cell-based; conditions: Mus musculus, docetaxel for 72 h
Experimental: Breast cancer organoids were derived from K14-Cre; Brca1fl/fl; p53fl/fl mouse mammary tumors (KB1P (Kester, L., et al. Clin Cancer Res, 2022.)) and from MMTV-PyMT (Duarte, A. A., et al. Nat Methods, 2018. 15(2): p. 134-140) mouse mammary tumors. Both lines were cultured in 50 μl drops of Cultrex PathClear Reduced Growth Factor Basement Membrane Extract Type 2 (BME, Amsbio, 3533-005-02). KB1P organoids were cultured in Advanced Dulbecco's modified Eagle's medium (adDMEM/F12; Thermo Fisher Scientific. Cat. No. 12634-010) containing Hepes (10 mmol/L; Thermo Fisher Scientific, Cat. No. 15630-056), Penicillin/streptomycin (10,000 U/ml; Thermo Fisher Scientific, Cat. No. 15140-122), B27 (2% Thermo Fisher Scientific, Cat. No. 17504-044), N-acetylcysteine (1.25 mM; Sigma-Aldrich, Cat. No. A9165) and fibroblast growth factor (FGF, 12 ng/ml; Invitrogen, Cat. No. PHG0261). MMTV-PyMT organoids were cultured in DMEM/F12 GlutaMAX (Gibco, Cat. No 10565018) supplemented with 10 mmol/L Hepes (Gibco, Cat. No 15630106), Penicillin/streptomycin (10,000 U/ml; Thermo Fisher Scientific, Cat. No. 15140-122), B27 (2% Thermo Fisher Scientific, Cat. No. 17504-044) and fibroblast growth factor (FGF, 12 ng/ml; Invitrogen, Cat. No. PHG0261). […]
Following co-culture, medium was removed, and cultures were washed in PBS to remove T cells. […] Plates were read with a 565 nm wavelength.

[2] = test system: mouse T cells isolated from the spleen; assay: T cell immunofluorescence staining of tubulin and F-actin; assay type: cell-based; conditions: 10 nmol/L, 72 h
Experimental: Mouse T cells isolated from the spleen and treated with a vehicle control or with docetaxel (10 nmol/L for 72 h) were seeded on glass coverslips pre-coated with poly-D-lysine (Thermo Fisher Cat. No. A3890401) and with αCD3 (eBioscience, Cat. No. 56-0033-80) for 15 min. Next, for immunofluorescence staining of tubulin, cells were extracted for 1 min with pre-warmed (37° C.) extraction buffer composed of MRB80 (80 mmol/L K-PIPES pH 6.8, 4 mmol/L MgCl2, 1 mmol/L EGTA) supplemented with 0.35% Triton X-100 and 0.2% glutaraldehyde, followed by fixation using pre-warmed (37° C.) 4% paraformaldehyde (PFA) in PBS for 10 min. Cells were washed with PBS and permeabilized with 0.2% Triton X-100 in PBS for 5 min. […]
For fluorescence intensity quantifications, samples were imaged on a spinning disk confocal setup consisting of an inverted research microscope Nikon Eclipse Ti-E (Nikon) equipped with the perfect focus system (Nikon), Plan Apo VC 100×N.A. 1.40 oil objective (Nikon), spinning disk Yokogawa CSU-X1-A1 with 405-491-561-642 quad-band mirror (Yokogawa). […]
All images were processed using ImageJ. For quantification of fluorescence intensity, sum projections were made for each z-stack using ImageJ. Next, the raw integrated density of a square box around individual cells of interest per image, as well as an empty region in the field of view, were calculated using ImageJ. […]

For `CC(=O)O[C@@]12CO[C@@H]1C[C@H](O)[C@@]1(C)C(=O)[C@H](O)C3=C(C)[C@@H](OC(=O)[C@H](O)[C@@H](NC(=O)OC(C)(C)C)c4ccccc4)C[C@@](O)([C@@H](OC(=O)c4ccccc4)[C@H]21)C3(C)C` [docetaxel], the IC50 [1] was 90.5 nM and the microtubule density [2] was “increased microtubule density”.
